According to PubChem BioAssay AID256 (DTP/NCI, 2004):
Values joined by “and” are separate entries in the source; they are usually repeats but may differ in a detail not shown here. Identical values can stand only once. Toxic doses and inconclusive results are not listed.

Tested on: CD2F1 mice, L1210 leukemia ip, survival T/C
Assay: NCI In Vivo Anticancer Drug Screen. Data for tumor model L1210 Leukemia (intraperitoneal) in CD2F1 (CDF1) mice
Details: higher = longer survival
Summary of the method: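 Mice carrying a transplanted tumor received test compound or vehicle alone. The value is the measurement in the treated group divided by that in the vehicle-treated control group.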

[1] = endpoint: mean survival time, dose: 100.0 mg/kg/injection, schedule: Q01DX009 (ip), vehicle: saline with Tween-80
[2] = endpoint: mean survival time, dose: 100.0 mg/kg/injection, schedule: Q04DX003 (ip), vehicle: saline with Tween-80
[3] = endpoint: mean survival time, dose: 200.0 mg/kg/injection, schedule: Q01DX009 (ip), vehicle: saline with Tween-80
[4] = endpoint: mean survival time, dose: 200.0 mg/kg/injection, schedule: Q04DX003 (ip), vehicle: saline with Tween-80
[5] = endpoint: mean survival time, dose: 400.0 mg/kg/injection, schedule: Q01DX009 (ip), vehicle: saline with Tween-80
[6] = endpoint: mean survival time, dose: 400.0 mg/kg/injection, schedule: Q04DX003 (ip), vehicle: saline with Tween-80

CC1CN1CC(O)C(O)CN1CC1C (stereo unspecified)
T/C (endpoint: mean survival time, dose: 2.5 mg/kg/injection, schedule: Q01DX009 (ip), vehicle: saline): 115 % of control

C=C(C)C12CC(C)C34OC(CCCCCCCCCCC)(OC1C3C1OC1(CO)C(O)C1(O)C(=O)C(C)=CC14C)O2 (stereo unspecified)
T/C (endpoint: mean survival time, dose: 0.05 mg/kg/injection, schedule: Q01DX009 (ip), vehicle: other): 94 % of control
T/C (endpoint: mean survival time, dose: 0.1 mg/kg/injection, schedule: Q01DX009 (ip), vehicle: other): 89 % of control
T/C (endpoint: mean survival time, dose: 0.2 mg/kg/injection, schedule: Q01DX009 (ip), vehicle: other): 89 % of control
T/C (endpoint: mean survival time, dose: 0.4 mg/kg/injection, schedule: Q01DX009 (ip), vehicle: other): 89 % of control

COC(=O)c1cc2ccccc2cc1OC
T/C [1]: 102 % of control
T/C [2]: 95 % of control
T/C [3]: 109 % of control
T/C [4]: 97 % of control
T/C [5]: 101 % of control
T/C [6]: 97 % of control

CC(C(=O)c1ccccc1)=C(C(F)(F)F)C(F)(F)F
T/C [1]: 98 % of control
T/C [2]: 91 % of control
T/C [3]: 97 % of control
T/C [4]: 97 % of control
T/C [5]: 103 % of control
T/C [6]: 100 % of control

Cc1cc(=O)[nH]c2c1c(C#N)cn2C1CCCCC1
T/C (endpoint: mean survival time, dose: 100.0 mg/kg/injection, schedule: Q04DX003 (ip), vehicle: saline): 101 % of control
T/C (endpoint: mean survival time, dose: 200.0 mg/kg/injection, schedule: Q04DX003 (ip), vehicle: saline): 89 % of control
T/C (endpoint: mean survival time, dose: 400.0 mg/kg/injection, schedule: Q04DX003 (ip), vehicle: saline): 93 % of control

Nc1cc(Sc2ccc(Cl)cc2)nc(N)n1
T/C (endpoint: mean survival time, dose: 25.0 mg/kg/injection, schedule: Q01DX001 (ip), vehicle: saline with Tween-80): 102 % of control
T/C (endpoint: mean survival time, dose: 50.0 mg/kg/injection, schedule: Q01DX001 (ip), vehicle: saline with Tween-80): 102 % of control
T/C (endpoint: mean survival time, dose: 100.0 mg/kg/injection, schedule: Q01DX001 (ip), vehicle: saline with Tween-80): 98 % of control

COC(=O)c1cc(C)ccc1O
T/C [1]: 96 % of control
T/C [2]: 90 % of control
T/C [3]: 101 % of control
T/C [4]: 93 % of control
T/C [6]: 100 % of control

CS(=O)(=O)c1ncc(Br)cn1
T/C (endpoint: mean survival time, dose: 3.12 mg/kg/injection, schedule: Q01DX009 (ip), vehicle: saline with Tween-80): 101 % of control
T/C (endpoint: mean survival time, dose: 3.13 mg/kg/injection, schedule: Q01DX009 (ip), vehicle: saline with Tween-80): 101 % of control
T/C (endpoint: mean survival time, dose: 6.25 mg/kg/injection, schedule: Q01DX009 (ip), vehicle: saline with Tween-80): 101 % of control and 106 % of control
T/C (endpoint: mean survival time, dose: 12.5 mg/kg/injection, schedule: Q01DX009 (ip), vehicle: saline with Tween-80): 101 % of control and 102 % of control
T/C (endpoint: mean survival time, dose: 25.0 mg/kg/injection, schedule: Q01DX009 (ip), vehicle: saline with Tween-80): 95 % of control and 107 % of control
T/C (endpoint: mean survival time, dose: 50.0 mg/kg/injection, schedule: Q01DX009 (ip), vehicle: saline with Tween-80): 103 % of control and 104 % of control
T/C [1]: 104 % of control and 108 % of control

COc1ccc(NC(=O)Nc2nccs2)c(Cl)c1
T/C (endpoint: mean survival time, dose: 50.0 mg/kg/injection, schedule: Q01DX009 (ip), vehicle: Klucel (hydroxypropylcellulose) (HPC)): 98 % of control
T/C (endpoint: mean survival time, dose: 100.0 mg/kg/injection, schedule: Q01DX009 (ip), vehicle: Klucel (hydroxypropylcellulose) (HPC)): 98 % of control
T/C (endpoint: mean survival time, dose: 100.0 mg/kg/injection, schedule: Q04DX003 (ip), vehicle: Klucel (hydroxypropylcellulose) (HPC)): 106 % of control
T/C (endpoint: mean survival time, dose: 200.0 mg/kg/injection, schedule: Q01DX009 (ip), vehicle: Klucel (hydroxypropylcellulose) (HPC)): 87 % of control
T/C (endpoint: mean survival time, dose: 200.0 mg/kg/injection, schedule: Q04DX003 (ip), vehicle: Klucel (hydroxypropylcellulose) (HPC)): 102 % of control
T/C (endpoint: mean survival time, dose: 400.0 mg/kg/injection, schedule: Q04DX003 (ip), vehicle: Klucel (hydroxypropylcellulose) (HPC)): 98 % of control

CCCCCCN(CCCCCC)CC(O)c1ccncc1 (stereo unspecified)
T/C (endpoint: mean survival time, dose: 25.0 mg/kg/injection, schedule: Q04DX003 (ip), vehicle: saline sonified): 100 % of control
T/C (endpoint: mean survival time, dose: 50.0 mg/kg/injection, schedule: Q04DX003 (ip), vehicle: saline sonified): 92 % of control
T/C (endpoint: mean survival time, dose: 100.0 mg/kg/injection, schedule: Q04DX003 (ip), vehicle: saline sonified): 100 % of control

N=c1c2ncn(C3CCCC3)c2ncn1Cc1ccc([N+](=O)[O-])cc1
T/C (endpoint: mean survival time, dose: 75.0 mg/kg/injection, schedule: Q01DX001 (ip), vehicle: other): 106 % of control

CC(C(O)c1ccc(Br)cc1)C(O)(C(F)(F)F)C(F)(F)F (stereo unspecified)
T/C (endpoint: mean survival time, dose: 100.0 mg/kg/injection, schedule: Q04DX003 (ip), vehicle: other): 113 % of control
T/C (endpoint: mean survival time, dose: 200.0 mg/kg/injection, schedule: Q04DX003 (ip), vehicle: other): 107 % of control
T/C (endpoint: mean survival time, dose: 400.0 mg/kg/injection, schedule: Q04DX003 (ip), vehicle: other): 100 % of control

CNc1ccc(Br)c2c1C(=O)c1ccccc1C2=O
T/C [2]: 97 % of control
T/C [4]: 101 % of control
T/C [6]: 95 % of control

CN(C)C(=S)[S][Sn]([CH3])([CH3])[CH3]
T/C (endpoint: mean survival time, dose: 0.39 mg/kg/injection, schedule: Q01DX009 (ip), vehicle: saline): 115 % of control
T/C (endpoint: mean survival time, dose: 0.78 mg/kg/injection, schedule: Q01DX009 (ip), vehicle: saline): 107 % of control
T/C (endpoint: mean survival time, dose: 1.56 mg/kg/injection, schedule: Q01DX009 (ip), vehicle: saline): 95 % of control

CC[C@]1(O)C[C@H](OC2CC(N(C)C)C(OC3CC(O)C(O)C(C)O3)C(C)O2)c2c(cc3c(c2O)C(=O)c2c(O)ccc(O)c2C3=O)[C@H]1C(=O)OC (stereo partly specified)
T/C (endpoint: mean survival time, dose: 0.12 mg/kg/injection, schedule: Q01DX009 (ip), vehicle: Klucel (hydroxypropylcellulose) (HPC)): 114 % of control and 109 % of control and 110 % of control

O=CC(O)C(O)C(O)C(O)C(=O)O.O=CC(O)C(O)C(O)C(O)C(=O)O.[NH-]C1CCCCC1[NH-].[Pt+2] (stereo unspecified)
T/C (endpoint: mean survival time, dose: 1.56 mg/kg/injection, schedule: Q04DX003 (ip), vehicle: saline): 118 % of control
T/C (endpoint: mean survival time, dose: 3.12 mg/kg/injection, schedule: Q04DX003 (ip), vehicle: saline): 114 % of control
T/C (endpoint: mean survival time, dose: 6.25 mg/kg/injection, schedule: Q04DX003 (ip), vehicle: saline): 191 % of control and 184 % of control
T/C (endpoint: mean survival time, dose: 12.5 mg/kg/injection, schedule: Q04DX003 (ip), vehicle: saline): 212 % of control and 168 % of control and 213 % of control
T/C (endpoint: mean survival time, dose: 25.0 mg/kg/injection, schedule: Q04DX003 (ip), vehicle: saline): 274 % of control [middle of 4 runs]
T/C (endpoint: mean survival time, dose: 50.0 mg/kg/injection, schedule: Q04DX003 (ip), vehicle: saline): 154 % of control and 216 % of control and 330 % of control
T/C (endpoint: median survival time, dose: 3.12 mg/kg/injection, schedule: Q04DX003 (ip), vehicle: saline): 104 % of control
T/C (endpoint: median survival time, dose: 6.25 mg/kg/injection, schedule: Q04DX003 (ip), vehicle: saline): 106 % of control
T/C (endpoint: median survival time, dose: 12.5 mg/kg/injection, schedule: Q04DX003 (ip), vehicle: saline): 106 % of control
T/C (endpoint: median survival time, dose: 25.0 mg/kg/injection, schedule: Q04DX003 (ip), vehicle: saline): 107 % of control
T/C (endpoint: median survival time, dose: 50.0 mg/kg/injection, schedule: Q04DX003 (ip), vehicle: saline): 111 % of control
T/C (endpoint: median survival time, dose: 100.0 mg/kg/injection, schedule: Q04DX003 (ip), vehicle: saline): 110 % of control
T/C (endpoint: median survival time, dose: 200.0 mg/kg/injection, schedule: Q04DX003 (ip), vehicle: saline): 116 % of control

CCSCCNC1=C(C)C(=O)C2=C(C1=O)[C@H](COC(N)=O)[C@]1(OC)[C@@H]3N[C@@H]3CN21
T/C (endpoint: mean survival time, dose: 6.0 mg/kg/injection, schedule: Q01DX001 (ip), vehicle: distilled water + Tween-80): 121 % of control
T/C (endpoint: mean survival time, dose: 24.0 mg/kg/injection, schedule: Q01DX001 (ip), vehicle: distilled water + Tween-80): 155 % of control

CCCCCCCCN(c1ccc(C(=O)NC(CCC(=O)OCC)C(=O)OCC)cc1)S(=O)(=O)c1ccc(C)cc1 (stereo unspecified)
T/C (endpoint: mean survival time, dose: 12.5 mg/kg/injection, schedule: Q04DX003 (ip), vehicle: saline with Tween-80): 94 % of control
T/C (endpoint: mean survival time, dose: 25.0 mg/kg/injection, schedule: Q04DX003 (ip), vehicle: saline with Tween-80): 100 % of control
T/C (endpoint: mean survival time, dose: 50.0 mg/kg/injection, schedule: Q04DX003 (ip), vehicle: saline with Tween-80): 102 % of control
T/C [2]: 86 % of control
T/C [4]: 86 % of control
T/C [6]: 87 % of control

CCOC(=O)C(C(=O)OCC)N(Cc1ccccc1)Cc1ccccc1
T/C (endpoint: mean survival time, dose: 12.5 mg/kg/injection, schedule: Q01DX009 (ip), vehicle: other): 93 % of control
T/C (endpoint: mean survival time, dose: 25.0 mg/kg/injection, schedule: Q01DX009 (ip), vehicle: other): 93 % of control
T/C (endpoint: mean survival time, dose: 50.0 mg/kg/injection, schedule: Q01DX009 (ip), vehicle: other): 96 % of control
T/C (endpoint: mean survival time, dose: 100.0 mg/kg/injection, schedule: Q01DX009 (ip), vehicle: other): 93 % of control
T/C (endpoint: mean survival time, dose: 200.0 mg/kg/injection, schedule: Q01DX009 (ip), vehicle: other): 90 % of control

CCN1CCC(C(C)(C)C)CC1
T/C (endpoint: mean survival time, dose: 100.0 mg/kg/injection, schedule: Q01DX001 (ip), vehicle: acetone): 102 % of control

CCCC(CC)OC(=O)Nc1cccc2ccccc12 (stereo unspecified)
T/C (endpoint: mean survival time, dose: 100.0 mg/kg/injection, schedule: Q01DX001 (ip), vehicle: saline): 100 % of control
T/C (endpoint: mean survival time, dose: 200.0 mg/kg/injection, schedule: Q01DX001 (ip), vehicle: saline): 102 % of control
T/C (endpoint: mean survival time, dose: 400.0 mg/kg/injection, schedule: Q01DX001 (ip), vehicle: saline): 100 % of control

CCOC(=O)c1cn[nH]c1/N=N/N(C)C
T/C (endpoint: mean survival time, dose: 100.0 mg/kg/injection, schedule: Q01DX001 (ip), vehicle: carboxymethylcellulose (CMC)): 115 % of control
